Read-outs that look alike come from different tables or passages of the source.
Tests used:
Gal3 FL [1] = target: T1, Gal3 FL (Homo sapiens, UniProt P17931); experiment: Isothermal titration calorimetry (ITC), Gal3 FL; assay type: binding; details: 22 °C
T1 construct: Recombinant human galectin-3 (Gal3, 26 kDa, full-length galectin-3 or Gal3 FL); made in house
From the text: We used isothermal titration calorimetry (ITC), which is a molecular interaction technique ideal for the reliable determination of stoichiometric ratios in the protein soluble state. […] The reaction is exothermic and enthalpy driven with a heat release of −5363 ± 196.4 cal/mol, indicating a substantial number of non-covalent bonding during complex formation. Moreover, the interaction also profits from a significant entropic contribution of 1956 cal/mol.
A VP-ITC MicroCal instrument (Malvern Panalytical Ltd, Malvern, UK) with cell volume of 1.4253 mL was used at 22 °C for the measurement of the stoichiometric ratio and the enthalpy/entropy contributions to the binding of gold prophyrin to Gal3 FL. Prior to the experiment, the Gal3 FL protein was dialyzed extensively against 20 mM Hepes at pH 7.4 and 150 mM NaCl, the buffer used for the experiment.

Gal3 CRD [2] = target: T2, Gal3 CRD (Homo sapiens, UniProt P17931); experiment: Tryptophan fluorescence spectroscopy (TFS), Gal3 CRD; assay type: binding; details: 10 μM Gal3 CRD; 25 °C; pH 7.4; read-out: KD (TFS, non-linear regression)
T2 construct: The carbohydrate recognition domain (Pro106-Ile250) of human Gal3 (Gal3 CRD); His-tag; made in house; host or cells: Escherichia coli BL21(DE3)
T2 sequence (P17931 106-250): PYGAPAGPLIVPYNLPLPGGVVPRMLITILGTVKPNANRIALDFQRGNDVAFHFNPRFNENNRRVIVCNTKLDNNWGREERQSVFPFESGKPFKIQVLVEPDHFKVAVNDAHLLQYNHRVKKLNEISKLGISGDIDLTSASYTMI
From the text: (§1) The formation of Gal3–Au^3+TTPS complexes can be followed by the changes in the intrinsic or tryptophan fluorescence spectroscopy. Binding of the metal-based drug to Gal3 FL caused a red shift of the maximum emission wavelength of about 9 nm (339 nm to 348 nm), as well as a decrease in fluorescence intensity. This is indicative of indole side chains of Trp residues being exposed on the protein surface. […] The hyperbolic nature of the binding curves of gold porphyrin to of Gal3 FL and Gal3 CRD is indicative of the presence of a single binding site for the ligand.
(§2) Figure 3 TFS measurements of complex formation with Gal3. […] The data points were plotted as means ± standard error of the mean for three independent experimental data sets.
(§3) Tryptophan fluorescence spectroscopy (TFS) was performed on a Shimadzu spectrofluorometer (Shimadzu, Kyoto, Japan). […] Total fluorescence was calculated after normalization of the fluorescence spectra and corrected for dilution. In order to account for the inner filter and the self-absorption effects, the experiments were always carried out on samples with absorbance (OD280nm) less than 0.05. Absorbance was measured using a spectrophotometer (Beckman, Brea, CA, USA). All measurements were performed at 25 °C, with the temperature of the samples determined in the cuvette with an accuracy of ± 0.2 °C.

[3] = target: T3, full-length Gal3 (Gal3 FL) (Homo sapiens, UniProt P17931); experiment: Microscale thermophoresis (MST), Gal3 FL; assay type: binding
T3 construct: Recombinant human galectin-3 (Gal3, 26 kDa, full-length galectin-3 or Gal3 FL); made in house
T3 sequence (P17931 whole entry): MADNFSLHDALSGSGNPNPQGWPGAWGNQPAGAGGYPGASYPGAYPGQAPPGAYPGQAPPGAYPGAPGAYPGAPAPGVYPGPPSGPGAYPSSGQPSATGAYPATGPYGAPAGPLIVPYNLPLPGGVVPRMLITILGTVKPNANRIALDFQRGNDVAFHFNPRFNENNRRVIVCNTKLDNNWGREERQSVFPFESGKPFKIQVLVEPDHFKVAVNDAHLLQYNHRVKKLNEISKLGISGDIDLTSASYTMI
From the text: Microscale thermophoresis (MST) is a very sensitive, immobilization-free interaction technique that is based on the speed of migration away from a central point in the capillary that is hit by an infra-red laser at time 0 (Figure 1).
Microscale thermophoresis (MST) is a technique to quantify biomolecular interactions by measuring the directed movement of molecules in a microscopic temperature gradient induced by an infrared laser. The directed movement of molecules in thin capillaries was detected and quantified by means of a red-light fluorophore (NT-647-NHS, with excitation maximum at 647 nm and emission maximum at 670 nm) covalently linked to Gal3 proteins. For labelling, we used two times the concentration of the protein (16 μM Gal3 FL, 43 μM Gal3 CRD) for the fluorophore. Removal of excess fluorphore was combined with buffer exchange into 20 mM Hepes, pH 7.4 with 150 mM NaCl and 0.05% Tween-20.
A two-fold dilution series of ligand concentrations was established ranging from 239 μM to […], with a constant concentration of 4 μM Gal3 FL and 22 μM Gal3 CRD. The samples were loaded into standard glass capillaries and readings were performed with the red light of a Monolith NT.115, with LED power setting of 20% and an MST power setting of 40%. […] The same procedure was repeated for Gal3 CRD and using roscovitine as a ligand. The data were analyzed using the MO Affinity Analysis software v2.2.4.

Gal3 CRD [4] = target: T2, Gal3 CRD; experiment: MST capillary scan, fit to initial fluorescence, Gal3 CRD; assay type: binding
From the text: (§4) The large and unwanted initial fluorescence changes (Figure 1D) are unlikely to originate from Trp181 near the lactose-binding site of Gal3 CRD, because the MST was run using red fluorescence excitation and emission wavelengths. Also, although Gal3 FL has three tryptophans (Trp22, Trp26 and Trp181) instead of a single one (Trp181) in Gal3 CRD, it appears less affected (Figure 1A versus D). Therefore, there is more likely an involvement of NT-647-NHS-labelled lysine residues near the binding site of Au^3+TTPS. This involvement of labelled lysines enabled the fit based on the initial fluorescence data (Figure 2). […] Therefore, we initiated tryptophan fluorescence spectroscopy measurements (TFS).
(§5) Microscale thermophoresis (MST) is a technique to quantify biomolecular interactions by measuring the directed movement of molecules in a microscopic temperature gradient induced by an infrared laser. The directed movement of molecules in thin capillaries was detected and quantified by means of a red-light fluorophore (NT-647-NHS, with excitation maximum at 647 nm and emission maximum at 670 nm) covalently linked to Gal3 proteins. […]
(§6) A two-fold dilution series of ligand concentrations was established ranging from 239 μM to […], with a constant concentration of 4 μM Gal3 FL and 22 μM Gal3 CRD. […] The data were analyzed using the MO Affinity Analysis software v2.2.4.

Gal3 FL [5] = target: T1, Gal3 FL; experiment: Tryptophan fluorescence spectroscopy (TFS), Gal3 FL; assay type: binding; details: 2 μM Gal3 FL; 25 °C; pH 7.4; read-out: KD (TFS, non-linear regression)
From the text: as §1, §2, §3

Gal3 FL [6] = target: T1, Gal3 FL; experiment: MST capillary scan, fit to initial fluorescence, Gal3 FL; assay type: binding; details: capillary scan values, time point 0, read-out: KD from fit of initial (before thermophoresis) fluorescence
From the text: as §4, §5, §6

Gal3 CRD [7] = target: T2, Gal3 CRD; experiment: Isothermal titration calorimetry (ITC), Gal3 CRD; assay type: binding; details: Gal3 CRD 32.67 μM, also at twice higher concentrations
Gal3 = details: cited from earlier work
Gal3 CRD [8] = target: T2, Gal3 CRD; set-up: method as in PMID 31094416; details: ref 46; cited from earlier work

T1 sequence (P17931 whole entry): as above

Molecule: 5,10,15,20-Tetrakis(4-sulfonatophenyl)-porphyrin-Au(III)chloride [Au^3+TPPS]
- change in Gibbs free energy (ΔG) (ITC) (Gal3 FL [1]): -7.326 kcal/mol
- entropic contribution (ITC) (Gal3 FL [1]): 1.956 kcal/mol
- heat release (enthalpy) (ITC) (Gal3 FL [1]): -5.363 ± 0.1964 kcal/mol
- stoichiometry (ITC) (Gal3 FL [1]): 1.02 ± 0.03 sites
- Kd (Gal3 FL [1]; 20 mM Hepes pH 7.4, 150 mM NaCl, read-out: equilibrium dissociation constant KD (ITC)): 3.78 ± 0.27 µM
- Kd (Gal3 CRD [2]): 22.7 ± 5.6 µM
- binding after SDS denaturation of Gal3 FL (SD test) ([3]; Gal3 FL denatured with 4% SDS, 40 mM DTT, 95 °C, same concentration series): without observing binding
- Kd ([3]; Gal3 FL labelled with NT-647-NHS, 4 μM Gal3 FL, thermophoresis read-out, read-out: KD (MST curves)): 2.84 ± 1.03 µM
- Kd (Gal3 CRD [4]; Gal3 CRD, capillary scan values, time point 0, read-out: KD from fit of initial (before thermophoresis) fluorescence): 25.9 ± 0.65 µM
- weaker binding of truncated Gal3 (CRD) versus Gal3 FL (Gal3 CRD [4]; comparison of initial fluorescence fits): at Least 5 fold
- Kd (Gal3 FL [5]): 2.6 ± 0.6 µM
- Kd (Gal3 FL [6]): 5.83 ± 0.65 µM
- ITC titration result with Gal3 CRD (Gal3 CRD [7]): no measurable results

Molecule: OC[C@H]1O[C@@H](O[C@H]2[C@H](O)[C@@H](O)C(O)O[C@@H]2CO)[C@H](O)[C@@H](O)[C@H]1O (mixture of isomers) [lactose]
- inhibition of Zn^2+TTPS binding to Gal3 (Gal3; ref 42): did not inhibit

Molecule: CC(=O)N[C@H]1C(O)O[C@H](CO)[C@@H](O[C@@H]2O[C@H](CO)[C@H](O)[C@H](O)[C@H]2O)[C@@H]1O (some centres unmarked) [N-acetyllactosamine]
- Kd (Gal3; ref 43): 25 µM
- Kd (Gal3; ref 44): 28 µM
- Kd (Gal3; ref 45): 112 µM
- Kd (Gal3; ref 46): 118 µM

Molecule: CC[C@H](CO)Nc1nc(NCc2ccccc2)c2ncn(C(C)C)c2n1 [roscovitine, reference compound]
- affinity between Gal3 FL and ligand (MST) ([3]; Gal3 FL, MST): no affinity

Molecule: CD146: cluster of differentiation 146, melanoma cell adhesion molecule, cell surface glycoprotein
- affinity for Gal3 CRD (Gal3 CRD [8]): unmeasurable
